Assay results as given in patent US20190293634A1, “ISOLATED INTESTINAL MUCOSA AND USES THEREOF” (priority 2018, published 2019).
≈ marks a conversion by molar mass, not a printed value.

Key:
CYP24A1 mRNA = experiment: Induction of CYP24A1 transcription in cryopreserved isolated intestinal mucosa (RT-PCR); assay type: cell-based, human; conditions: 24-hr treatment, dose dependent
Description: Gene transcription in the intestinal mucosa was quantified based on reverse transcription-real time PCR (RT-PCR) using the 7500 Fast Real-Time PCR system (Applied Biosystems, Foster City, Calif.). Total RNA was extracted using the mini RNeasy kit (QIAGEN, www.qiagen.com) according to instructions provided by the manufacturer for isolation of total RNA from the intestinal mucosa. At first, reverse transcription (RT) was performed with approximately 200 ng of isolated RNA using the High Capacity cDNA Reverse Transcription Kit (Thermo Fisher Scientific Inc., www.thermofisher.com). Subsequently, quantitative PCR analysis was performed on RT reactions using gene specific primer/probe sets and the Taqman Fast Universal PCR Master Mix (Thermo Fisher). The relative quantity of the target gene was compared with that of the reference transcription of […] (GAPDH) as determined by the […] and as previously described (Fahmi, Kish et al. 2010).
P450 induction in cryopreserved metabolically competent isolated intestinal mucosa was evaluated based on gene transcription. Following a 24-hr treatment period, dose dependent induction of CYP3A4 mRNA by rifampin and 25-hydroxyD3; and, CYP24A1 mRNA by 25-hydroxyD3 were observed. For CYP3A4, the maximal fold of induction was approximately 3-fold for both inducers. Data shown for 25-hydroxyD3 in FIG. 10C.

in vitro = conditions: human, IC50 (cytotoxicity)
Description: (§1) The cryopreserved vials of the isolated intestinal mucosa comprising villi were removed from liquid nitrogen storage and thawed in a 37° C. water bath for approximately 2 min. The contents of each individual vial were decanted into a 50 ml conical tube containing Cryopreserved Enterocyte Recovery Medium, (In Vitro ADMET Laboratories, Columbia, Md.) that was pre-warmed in a 37° C. water bath. The thawed in vitro reagent was recovered by centrifugation at 100×g for 10 min at room temperature. After centrifugation, the supernatant was removed by decanting. A volume of 5 mL of 4° C. Hepatocyte/Enterocyte Incubation Medium, (In Vitro ADMET Laboratories, Columbia, Md.) was added to the intact pellet of enterocytes at the bottom of the conical tube followed by briskly re-pipetting 5 times with a P1000 micropipet to create an even suspension of the intestinal mucosal fragments.
(§2) In vitro cytotoxicity evaluation with cryopreserved intestinal mucosa was performed in 96-well plates. After recovery from cryopreservation as described above, the CHIM pellet was resuspended in 5 mL of Hepatocyte Incubation Medium (IVAL, Columbia, Md.). […] The cryopreserved intestinal mucosa cultures were then incubated in a CO2 cell culture incubator kept at 37° C. in a highly humidified atmosphere of 5% CO2. After an incubation duration of 24 hrs., cell viability was determined based on cellular ATP contents as previously described.
(§3) Data are presented as mean and standard deviation of triplicate incubations derived using the Microsoft Excel 6.0 software. Statistical analysis was performed using student's t-test with the Microsoft Excel 6.0 software, with the probability of p<0.05 to be considered statistically significant. Specific activity (pmol/min/mg protein) of each drug metabolizing enzyme pathway was determined by dividing the total metabolite formed by the incubation time and normalized to protein contents.

[1] = test system: cryopreserved intestinal mucosa isolated from human duodenum, jejunum, and ileum; experiment: in vitro; conditions: for IC50: Homo sapiens, read-out: IC50 (viability by cellular ATP contents), range over regions, duodenum, jejunum, and ileum of Donor 1
Description: as §1, §2, §3

[2] = test system: cryopreserved human intestinal mucosa; experiment: Drug-induced enterotoxicity in cryopreserved human intestinal mucosa, viability by cellular ATP contents (Example 6); conditions: duodenum, jejunum and ileum, three donors, FIGS. 6 and 7
Description: A vial of cryopreserved intestinal mucosa was thawed in a 37 C deg. water bath and added to 50 mL of culture medium (Universal Cryopreservation Plating Medium, In Vitro ADMET Laboratories, Columbia, Md.). The recovered mucosa pellet was suspended in a protein free incubation medium (Hepatocyte Enterocyte Incubation Medium, In Vitro ADMET Laboratories, Columbia, Md.). […] The plate was incubated at 37 deg. C. for 24 hrs after which cell viability was determined by the quantification of cellular ATP contents (ATPLite, Perkin Elmers).

For `C=C1/C(=C\C=C2/CCC[C@]3(C)[C@@H]([C@H](C)CCCC(C)(C)O)CC[C@@H]23)C[C@@H](O)C[C@@H]1O` [1,25(OH)D3, 1,25-dihydroxyvitamin D3], the “induction of CYP24A1 transcription (mRNA)” value (shortened to “induction”) (CYP24A1 mRNA) was “approximately 300 fold”, the “induction” value (CYP24A1 mRNA; listed as 25-hydroxyD3) was “Approximately 300 fold” and the “induction” value (CYP24A1 mRNA; listed as vitamin D3) was “approx. 300 fold”.

In the case of `CC(=O)Nc1ccc(O)cc1` [APAP, acetaminophen], the IC50 at 24 h (in vitro) is reported as 2250 µg/mL (≈ 14900 µM), the “cytotoxicity in cryopreserved intestinal mucosa (in words)” value [1] is reported as “Dose-dependent cytotoxicity” and the IC50 [1] is reported as 920 to 1180 µg/mL (≈ 6090 to 7810 µM).

With `COc1ccc2cc([C@H](C)C(=O)O)ccc2c1` [Naproxen, naproxen] the “viability in isolated intestinal mucosa (in words)” value [2] was “dose-dependent decrease in viability”, the IC50 at 24 h (in vitro; Duodenum mucosa, 24 hrs, cellular ATP contents) was 350 µg/mL (≈ 1520 µM) and the IC50 at 24 h (in vitro; Ileum mucosa, 24 hrs, cellular ATP contents) was 360 µg/mL (≈ 1560 µM). The IC50 at 24 h (in vitro; Jejunum mucosa, 24 hrs, cellular ATP contents) was 390 µg/mL (≈ 1690 µM), the IC50 [1] was 350 to 390 µg/mL (≈ 1520 to 1690 µM) and the “cytotoxicity in cryopreserved intestinal mucosa (in words)” value ([1]; three donors, 24 hrs) was “Dose-dependent cytotoxicity”.
